The values that follow come from patent publication US12077503B2, “Substituted cyclic amides and their use as herbicides” (FMC CORPORATION, priority 2015, dated 2024).

The structures appear in SMILES notation. Like-named read-outs stand apart in the source and are kept apart here.

For data set [1], the system named is wheat (Triticum aestivum). Briefly: Test A postemergence. The format is in vivo. As to conditions: Triticum aestivum, post-emergence, 240 h, Postemergence; for plant injury at 125 g/ha: 125 g ai/ha; for plant injury at 500 g/ha: 500 g ai/ha, visual injury, 0 to 100 scale (0 no effect, 100 complete control), approx. 10 d. In short, it runs like this:
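In a loam soil and sand blend, planted seeds got a preemergence directed soil spray, and young plants at the one- to two-leaf stage, 2–10 cm high, got a postemergence application; ~10 d greenhouse hold; injury rated visually, 0 = none, 100 = complete control.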

In data set [2] the test system is barnyardgrass (Echinochloa crus-galli). Briefly: Test B flooded paddy test. It is filed as in vivo. Conditions: Echinochloa crus-galli, 360 h, Flood, 250 g ai/ha; visually evaluated after 13 to 15 d; read-out: Plant response rating, Barnyardgrass (0 to 100 scale where 0 is no effect and 100 is complete control). In short, it runs like this: (§1)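 Plants at 2-leaf stage flooded to 3 cm above soil, with compounds applied directly to paddy water and that depth maintained. Plants kept in greenhouse 13–15 d. Visual rating versus controls on a 0 (no effect) to 100 (complete control) scale.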

For data set [3], the system named is ducksalad (Heteranthera limosa). Briefly: Test B flooded paddy test. The format is in vivo. As to conditions: Heteranthera limosa, 360 h, Flood, 250 g ai/ha; visually evaluated after 13 to 15 d; read-out: Plant response rating, Ducksalad (0 to 100 scale where 0 is no effect and 100 is complete control). In short, it runs like this: as §1
The test system of data set [4] is rice (Oryra sativa). Briefly: Test B flooded paddy test. As to conditions: Oryza sativa, 360 h, Flood, 250 g ai/ha; visually evaluated after 13 to 15 d; read-out: Plant response rating, Rice (0 to 100 scale where 0 is no effect and 100 is complete control). It is filed as in vivo. In short, it runs like this: as §1
For data set [5], the system named is sedge, umbrella (small-flower umbrella sedge, Cyperus difformis). Briefly: Test B flooded paddy test. It is filed as in vivo. As to conditions: Cyperus difformis, 360 h, Flood, 250 g ai/ha; visually evaluated after 13 to 15 d; read-out: Plant response rating, Sedge, Umbrella (0 to 100 scale where 0 is no effect and 100 is complete control). In short, it runs like this: as §1

The mark [6] stands for this setting: visual rating about 10 d after treatment, read-out: Wheat plant response rating (0 to 100 scale).
Setting [7] is: read-out: Plant response rating, Wheat.
The mark [8] stands for this setting: visual injury after approx. 10 d, 0 to 100 scale, 0 no effect, 100 complete control, read-out: Plant response rating, Wheat.

The term melting point denotes the temperature, or range, at which the solid turns liquid. In turn, `CN1CC[C@H](c2cccc(C(F)(F)F)c2)[C@@H](C(=O)Nc2ccccc2F)C1=O` [Compound 1331] came in with a melting point of 113 to 116 °C. The plant injury at 125 g/ha in data set [1] (setting [6]) came to 0%. Further, in data set [1] (setting [7]), the plant injury at 500 g/ha is 50%. In addition, the pest or weed control at 250 g/ha in data set [2] came out at 70%. Further, the pest or weed control at 250 g/ha in data set [3] is 20%. Moreover, the pest or weed control at 250 g/ha in data set [4] was found to be 0%. Moreover, the pest or weed control at 250 g/ha in data set [5] was 0%.

As for `O=C1NCC(c2ccccc2)C1C(=O)Nc1ccccc1` (centres unmarked) [Compound 1358], the melting point fell in the range of 180 to 181 °C. For the same molecule, the plant injury at 125 g/ha in data set [1] (setting [6]) turned out to be 0%. Moreover, the plant injury at 500 g/ha in data set [1] (setting [7]) is 0%. Also, the pest or weed control at 250 g/ha in data set [2] was 0%. For the same molecule, in data set [3], the pest or weed control at 250 g/ha is 0%. Moreover, the pest or weed control at 250 g/ha in data set [4] stood at 0%. Moreover, the pest or weed control at 250 g/ha in data set [5] is 0%.

Take `CN1C[C@H](c2ccc(C(F)(F)F)nc2)[C@@H](C(=O)Nc2cccc(F)c2F)C1=O` [Compound 1372]: the melting point fell in the range of 188.1 to 192.4 °C. Also, the plant injury at 125 g/ha in data set [1] (setting [6]) was found to be 70%. Further, the plant injury at 500 g/ha in data set [1] (setting [7]) amounted to 90%. Further, the pest or weed control at 250 g/ha in data set [2] is 80%. Besides, in data set [3], the pest or weed control at 250 g/ha was 85%. Moreover, in data set [4], the pest or weed control at 250 g/ha came to 40%. The pest or weed control at 250 g/ha in data set [5] stood at 0%.

As for `O=C1NC[C@H](c2cccc(C(F)(F)F)n2)[C@H]1C(=O)Nc1cccc(F)c1F` [Compound 1385], the melting point was in the range of 139 to 142 °C. In addition, in data set [1] (setting [8]), the plant injury at 125 g/ha turned out to be 0%. Also, the plant injury at 500 g/ha in data set [1] (setting [7]) came to 20%. The pest or weed control at 250 g/ha in data set [2] was 0%. For the same molecule, the pest or weed control at 250 g/ha in data set [3] was 40%. Further, in data set [4], the pest or weed control at 250 g/ha amounted to 0%. Further, the pest or weed control at 250 g/ha in data set [5] came out at 0%.

The molecule `O=C1NC[C@H](c2cncc(C(F)(F)F)c2)[C@H]1C(=O)Nc1cccc(F)c1F` [Compound 1394] came in with a melting point of 206 to 209 °C. Besides, the plant injury at 125 g/ha in data set [1] (setting [8]) amounted to 0%. Also, the plant injury at 500 g/ha in data set [1] (setting [7]) came to 60%. In addition, the pest or weed control at 250 g/ha in data set [2] was 40%. Also, the pest or weed control at 250 g/ha in data set [3] amounted to 75%. Also, in data set [4], the pest or weed control at 250 g/ha was found to be 10%. Further, the pest or weed control at 250 g/ha in data set [5] was found to be 0%.
